Measurements taken from patent US20250195483A1, “SPIRO PIPERIDINE DERIVATIVES AS INHIBITORS OF APOL1 AND METHODS OF USING SAME” (Vertex Pharmaceuticals Incorporated, priority 2022, published 2025).

Target: T1, APOL1 (Homo sapiens, UniProt O14791)
T1 sequence (O14791 1-398): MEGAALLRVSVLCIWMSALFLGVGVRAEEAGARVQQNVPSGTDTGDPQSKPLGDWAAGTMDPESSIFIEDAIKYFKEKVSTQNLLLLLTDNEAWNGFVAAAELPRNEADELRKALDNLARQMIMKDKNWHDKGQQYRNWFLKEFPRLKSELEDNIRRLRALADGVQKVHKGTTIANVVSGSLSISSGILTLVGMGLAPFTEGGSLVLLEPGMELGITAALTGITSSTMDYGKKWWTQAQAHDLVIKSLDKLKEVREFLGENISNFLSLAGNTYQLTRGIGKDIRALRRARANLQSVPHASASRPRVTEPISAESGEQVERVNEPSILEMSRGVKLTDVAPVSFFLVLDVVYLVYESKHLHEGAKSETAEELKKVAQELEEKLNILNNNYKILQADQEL
Assay: MultiTox-Fluor Multiplex Cytotoxicity Assay, tet-inducible APOL1 T-REx-HEK293 cells (G0, G1 or G2 clone not specified for Table 20)
Type: cell-based
Conditions: tet-induced, 24 hours with compound, ratio of dead to live cells, read-out: IP50 (i.e., IC50 for cell proliferation)
Outline: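 HEK293 T-REx cells with tet-inducible APOL1 G0, G1 or G2 clone, 23,400/well, treated with tetracycline plus compound (top 10 μM, 10-point 3-fold, duplicate) for 24 h at 37° C. MultiTox-Fluor dead/live fluorescence ratio, normalized to no-tet (100% viability) and 50 ng/mL tet (0% viability) controls, then curve-fitted.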

Structure (SMILES)	IC50 [µM]
C[C@H]1C[C@@]2(CCN1Cc1cnn(C)c1)OCCc1ccc(Cl)cc12 [Compound 111]	≤ 0.05
CC1CN(Cc2cnn(C)c2)CCC12OCCc1ccc(Cl)cc12 (centres unmarked) [Compound 140, 7-chloro-3′-methyl-1′-[(1-methylpyrazol-4-yl)methyl]spiro[isochromane-1,4′-piperidine]]	≥ 0.5
C[C@H]1C[C@@]2(CCN1Cc1cn[nH]c1)OCCc1ccc(Cl)cc12 [Compound 104]	≤ 0.05
CS(=O)(=O)CCn1cc(CN2CCC3(CC2)C(=O)Nc2ccc(C#N)cc23)cn1 [Compound 30]	≥ 0.5
CC(C)n1cc(CN2CCC3(CC2)OC(C(N)=O)c2ccc(Cl)cc23)cn1 (centres unmarked) [Compound 220]	≥ 0.5
Cc1noc2ncc(CN3CCC4(CC3)OC(C(N)=O)c3ccc(Cl)cc34)cc12 (centres unmarked) [Compound 237]	0.05 to 0.5
NC(=O)C1OC2(CCN(Cc3cnn(-c4ccccc4)c3)CC2)c2cc(Cl)ccc21 (single isomer, unassigned) [Compound 194, 5-chloro-1′-[(1-phenylpyrazol-4-yl)methyl]spiro[1H-isobenzofuran-3,4′-piperidine]-1-carboxamide]	≤ 0.05
COC(=O)c1ccc(CN2CCC3(CC2)OC(C(N)=O)c2ccc(Cl)cc23)cn1 (centres unmarked) [Compound 246]	≤ 0.05
CNc1ncc(CN2CCC3(CC2)OC(C(N)=O)c2ccc(Cl)cc23)cn1 (centres unmarked) [Compound 244]	≤ 0.05
C[C@H]1CC2(CCN1Cc1cn(CCS(C)(=O)=O)nn1)OC(C)(C)c1ccc(Cl)cc12 (single isomer, unassigned) [Compound 291, (2′S)-5-chloro-1,1,2′-trimethyl-1′-[[1-(2-methylsulfonylethyl)triazol-4-yl]methyl]spiro[isobenzofuran-3,4′-piperidine]]	≥ 0.5
CNC(=O)C1OC2(CCN(Cc3cnn(-c4cccnc4)c3)CC2)c2cc(Cl)ccc21 (centres unmarked) [Compound 202]	≤ 0.05
CNC(=O)C1OC2(CCN(Cc3cnn(-c4cccc(C(F)(F)F)c4)c3)CC2)c2cc(Cl)ccc21 (centres unmarked) [Compound 295, 5-chloro-N-methyl-1′-[[1-[3-(trifluoromethyl)phenyl]pyrazol-4-yl]methyl]spiro[1H-isobenzofuran-3,4′-piperidine]-1-carboxamide]	≤ 0.05
CC(CO)(CO)Cn1cc(CN2CCC3(CC2)OC(C(N)=O)c2ccc(Cl)cc23)cn1 (centres unmarked) [Compound 279, 5-chloro-1′-[[1-[3-hydroxy-2-(hydroxymethyl)-2-methyl-propyl]pyrazol-4-yl]methyl]spiro[1H-isobenzofuran-3,4′-piperidine]-1-carboxamide]	≤ 0.05
Cc1ccc2c(c1)C1(CCN(Cc3cnn(CCO)c3)[C@@H](C)C1)OCC2 (some centres unmarked) [Compound 99]	≥ 0.5
NC(=O)C1OC2(CCN(Cc3ccc(F)c(S(N)(=O)=O)c3)CC2)c2cc(Cl)ccc21 (centres unmarked) [Compound 274]	≥ 0.5
CCc1ccc2c(c1)C1(CCN(Cc3cnn(-c4ccccc4)c3)CC1)OC2C(=O)NC (centres unmarked) [Compound 206, 5-ethyl-N-methyl-1′-[(1-phenylpyrazol-4-yl)methyl]spiro[1H-isobenzofuran-3,4′-piperidine]-1-carboxamide]	0.05 to 0.5
CNC(=O)c1ccc(CN2CCC3(CC2)OC(C(N)=O)c2ccc(Cl)cc23)cc1 (centres unmarked) [Compound 233]	≤ 0.05
CN1C(=O)C2(CCN(Cc3cnn(CCS(C)(=O)=O)c3)CC2)c2cc(Cl)ccc21 [Compound 37, 5-chloro-1-methyl-1′-[[1-(2-methylsulfonylethyl)pyrazol-4-yl]methyl]spiro[indoline-3,4′-piperidine]-2-one]	0.05 to 0.5
Cc1ccc2c(c1)C1(CCN(Cc3cnn(CC(=O)N(C)C)c3)CC1)C(=O)N2 [Compound 25]	≥ 0.5

Structure (SMILES)	IC50 [µM]
C[C@H]1C[C@@]2(CCN1Cc1cn(CC3(CC(N)=O)CC3)nn1)OCCc1ccc(Cl)cc12 [Compound 175]	≤ 0.05
CN1C(=O)C2(CCN(Cc3cnn(CC4(O)CCS(=O)(=O)CC4)c3)CC2)c2cc(Cl)ccc21 [Compound 54]	0.05 to 0.5
CN1C(=O)Cc2ccc(CN3CCC4(CC3)OC(C(N)=O)c3ccc(Cl)cc34)cc21 (centres unmarked) [Compound 230]	≤ 0.05
NC(=O)C1OC2(CCN(Cc3cocn3)CC2)c2cc(Cl)ccc21 (centres unmarked) [Compound 255]	≥ 0.5
Cc1ccc(NCCn2cc(CN3CC[C@]4(C[C@@H]3C)OCCc3ccc(Cl)cc34)nn2)nn1 [Compound 159]	0.05 to 0.5
CS(=O)(=O)CCn1cc(CN2CCC3(CC2)C(=O)Nc2ccc(CC(F)F)cc23)cn1 [Compound 31]	≥ 0.5
NC(=O)C1OC2(CCN(Cc3cnc(N)nc3)CC2)c2cc(Cl)ccc21 (centres unmarked) [Compound 256]	0.05 to 0.5
NC(=O)C1OC2(CCN(Cc3cnn(C4CCOCC4)c3)CC2)c2cc(Cl)ccc21 (centres unmarked) [Compound 235]	≤ 0.05
NC(=O)C1OC2(CCN(Cc3cnn(CC(O)C4(O)CCOCC4)c3)CC2)c2cc(Cl)ccc21 (centres unmarked) [Compound 281]	≤ 0.05
Cc1ccc2c(c1)[C@]1(CCN(Cc3cnc(NC(C)(C)CO)nc3)[C@@H](C)C1)OCC2 [Compound 94]	≤ 0.05
CNC(=O)C1OC2(CCN(Cc3cnn(-c4cnc(C)nc4)c3)CC2)c2cc(Cl)ccc21 (centres unmarked) [Compound 211, 5-chloro-N-methyl-1′-[[1-(2-methylpyrimidin-5-yl)pyrazol-4-yl]methyl]spiro[1H-isobenzofuran-3,4′-piperidine]-1-carboxamide]	≤ 0.05
C[C@H]1C[C@@]2(CCN1Cc1cn(C)nn1)OCCc1ccc(Cl)cc12 [Compound 105]	≤ 0.05
Cn1cnc(CN2CCC3(CC2)OC(C(N)=O)c2ccc(Cl)cc23)c1 (centres unmarked) [Compound 273]	≥ 0.5
CC(C)n1cc(Cn2cc(CN3CC[C@]4(C[C@@H]3C)OCCc3ccc(Cl)cc34)nn2)c(=O)[nH]c1=O [Compound 169]	≤ 0.05
NC(=O)c1cccc(CN2CCC3(CC2)OC(C(N)=O)c2ccc(Cl)cc23)c1 (centres unmarked) [Compound 266]	≥ 0.5
CNC(=O)C1OC2(CCN(Cc3cnn(-c4ccccc4)c3)CC2)c2ccccc21 (centres unmarked) [Compound 190, N-methyl-1′-[(1-phenylpyrazol-4-yl)methyl]spiro[1H-isobenzofuran-3,4′-piperidine]-1-carboxamide]	≥ 0.5
COc1ccc2c(c1)C1(CCN(Cc3cnn(-c4ccccc4)c3)CC1)OC2C(N)=O (centres unmarked) [Compound 296, 6-methoxy-1′-((1-phenyl-1H-pyrazol-4-yl)methyl)-3H-spiro[isobenzofuran-1,4′-piperidine]-3-carboxamide]	≥ 0.5
Cc1cccc(CN2CCC3(CC2)OC(C(N)=O)c2ccc(Cl)cc23)n1 (centres unmarked) [Compound 268]	≥ 0.5
Cn1ccc(CN2CCC3(CC2)OC(C(N)=O)c2ccc(Cl)cc23)cc1=O (centres unmarked) [Compound 269]	≥ 0.5

Structure (SMILES)	IC50 [µM]
CC(=O)N1CC2(CCN(Cc3cnn(C)c3)CC2)c2cc(Cl)ccc21 [Compound 314, 1-[5-chloro-1′-[(1-methylpyrazol-4-yl)methyl]spiro[indoline-3,4′-piperidine]-1-yl]ethenone]	≥ 0.5
COCCn1cc(CN2CCC3(CC2)C(=O)Nc2ccc(C)cc23)cn1 [Compound 27]	≥ 0.5
CNc1cnc(Cn2cc(CN3CC[C@]4(C[C@@H]3C)OCCc3ccc(Cl)cc34)nn2)cn1 [Compound 162]	0.05 to 0.5
CS(=O)(=O)CCn1cc(CN2CCC3(CC2)OC(C(N)=O)c2ccc(Cl)cc23)cn1 (centres unmarked) [Compound 214]	≤ 0.05
C[C@H]1C[C@@]2(CCN1Cc1cnn(CC(=O)N(C)C)c1)OCCc1ccc(Cl)cc12 [Compound 102]	0.05 to 0.5
NC(=O)C1OC2(CCN(Cc3ccc[nH]c3=O)CC2)c2cc(Cl)ccc21 (centres unmarked) [Compound 270]	≥ 0.5
NC(=O)C1OC2(CCN(Cc3cc4n(n3)CCOC4)CC2)c2cc(Cl)ccc21 (centres unmarked) [Compound 249]	≥ 0.5
CNC(=O)C1OC2(CCN(Cc3cnn(-c4ccccc4)c3)CC2)c2cc(Cl)ccc21 (centres unmarked) [Compound 195, 5-chloro-N-methyl-1′-[(1-phenylpyrazol-4-yl)methyl]spiro[1H-isobenzofuran-3,4′-piperidine]-1-carboxamide]	≤ 0.05
CNC(=O)C1OC2(CCN(Cc3cnn(C4CCOCC4)c3)CC2)c2cc(Cl)ccc21 (centres unmarked) [Compound 200]	0.05 to 0.5
C[C@H]1C[C@@]2(CCN1Cc1cnn(C)c1)OCC(O)c1ccc(Cl)cc12 (some centres unmarked) [Compound 134]	≤ 0.05
C[C@H]1C[C@@]2(CCN1Cc1cn(CC3(O)CCOC3)nn1)OCCc1ccc(Cl)cc12 (some centres unmarked) [Compound 149]	≤ 0.05
C[C@H]1C[C@@]2(CCN1Cc1cnn(C[C@H](O)C(C)(C)O)c1)OCCc1ccc(Cl)cc12 [Compound 125]	≤ 0.05
C[C@H]1C[C@@]2(CCN1Cc1cn(CC(C)(C)NS(C)(=O)=O)nn1)OCCc1ccc(Cl)cc12 [Compound 167]	≤ 0.05
CS(=O)(=O)CCn1cc(CN2CCC3(CC2)OCCc2ccc(Cl)cc23)nn1 [Compound 129]	≥ 0.5
NC(=O)C1OC2(CCN(Cc3cnc(C4CC4)o3)CC2)c2cc(Cl)ccc21 (centres unmarked) [Compound 251]	0.05 to 0.5
CC1(O)CC2(CCN(Cc3cnn(CCS(C)(=O)=O)c3)CC2)c2cc(Cl)ccc21 (centres unmarked) [Compound 303, 5-chloro-1-methyl-1′-[[1-(2-methylsulfonylethyl)pyrazol-4-yl]methyl]spiro[indane-3,4′-piperidine]-1-ol]	≥ 0.5
C[C@H]1C[C@@]2(CCN1Cc1cnc(N)nc1)OCCc1ccc(Cl)cc12 [Compound 123]	≤ 0.05
NC(=O)C1OC2(CCN(Cc3cnn(-c4cccnc4)c3)CC2)c2cc(Cl)ccc21 (centres unmarked) [Compound 239]	≤ 0.05
